Consider five molecules from article PMC6580635, “Neuropilin-1 drives tumor-specific uptake of chlorotoxin” (Cell Communication and Signaling : CCS, 2019).

Peptide text beside a SMILES is read from it. * marks the point of attachment. Biotin = O=C1N[C@H]2[C@H](CS[C@H]2CCCCC(=O)*)N1; Cam = NC(=O)C*

The Kd is the equilibrium constant for the complex coming apart. A lower Kd goes with tighter binding.

Data set [1] has as its target T1, NRP1 (Homo sapiens, UniProt O14786).
T1 construct: purchased Sino Biological Inc. 10011-H02H
T1 sequence (O14786 22-644 isoform O14786-2 limits assumed): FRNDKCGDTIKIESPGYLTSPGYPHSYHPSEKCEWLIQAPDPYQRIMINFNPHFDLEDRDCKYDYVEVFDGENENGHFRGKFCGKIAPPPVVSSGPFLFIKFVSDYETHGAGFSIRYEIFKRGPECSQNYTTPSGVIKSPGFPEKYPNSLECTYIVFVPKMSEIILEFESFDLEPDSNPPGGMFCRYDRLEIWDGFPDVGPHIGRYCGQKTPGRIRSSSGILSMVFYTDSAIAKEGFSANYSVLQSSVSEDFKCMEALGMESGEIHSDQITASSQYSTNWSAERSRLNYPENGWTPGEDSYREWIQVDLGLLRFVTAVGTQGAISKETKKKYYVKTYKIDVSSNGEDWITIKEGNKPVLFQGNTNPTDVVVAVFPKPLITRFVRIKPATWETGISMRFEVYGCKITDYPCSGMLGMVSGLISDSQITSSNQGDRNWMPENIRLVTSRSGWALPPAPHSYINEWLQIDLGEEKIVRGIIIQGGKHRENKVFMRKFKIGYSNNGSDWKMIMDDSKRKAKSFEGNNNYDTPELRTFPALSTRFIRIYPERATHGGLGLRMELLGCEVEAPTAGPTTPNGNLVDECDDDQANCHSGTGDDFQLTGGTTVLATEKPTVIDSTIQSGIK
As to the kind of experiment: Bio-layer interferometry (Octet) binding of Cltx and derived peptides to NRP1. The following applies: BLI; biotinylated peptides on streptavidin biosensors, NRP1 0 to 1750 nM; mean of 2 to 6 independent experiments; ns = no significant binding. As for the experimental part: Octet binding studies required biotinylation of Cltx and derived peptides for loading onto streptavidin biosensors. Trypsin, (Promega Cat# V5280) (~ 40 μg/mL) was added to Cltx biotinylated at K27 or N-terminus (10 mg/mL) and incubated for 24 h at 37 °C, pH 8.5. The resulting peptides were separated by preparative HPLC and peptide fragments were characterized by MALDI. Small linear Cltx-derived peptides were also synthesized by routine methods and were biotinylated at the N-terminus. In some cases, peptides were reduced with TCEP at pH 8 and the cysteine residues were capped using iodoacetamide.
Assessment of binding between NRP1and Cltx was performed by Bio-Layer Interferometry (BLI) using the Octet Red96 System (ForteBio, Pall). Cltx and derived fragments were captured on streptavidin biosensors (Cat# 18–5020) under approximately equivalent loading conditions; sensors were then quenched with EZ-Link Biocytin and washed in assay buffer (PBS, 1% BSA, 0.05% Tween20).
For orientation: In BLI a coated tip is dipped into the sample, and binding shifts an interference pattern.

Data set [2] addresses T1, NRP1. Kind of data set: BLI competition with biotinylated VEGF165 for binding to NRP1. The following applies: NRP1 fixed at 390 nM, Cltx peptide 50 to 800 μmol/L.
The subject of data set [3] is crayfish. Kind of data set: Crayfish bioassay (neurotoxicity, paralysis). In kind it is in vivo. The note with it: 20 µg per injection, n=8 crayfish; Kaplan-Meier analysis.
Protocol: The crayfish assay to determine bioactivity of Cltx was performed at ABC Labs (Columbia, MO, now EAG Labs) using an SOP generated by TransMolecular Inc. Cltx peptide (20 μg) in sterile water was injected through the ventral surface of the thorax in the region of the sub-esophageal ganglion of crayfish which were then subjected to physical challenge defined as multiple, continuous, gentle prods in random parts of the body from head to tail. The animal’s response is based on avoidance, ability to right itself, and clasping with chelae in a defensive manner. Time from injection to total incapacitation was recorded; total incapacitation is defined as the time when the tested crayfish is not responsive when physically challenged.
Data set [4] concerns the target T2, Neuropilin-1 (NRP1) (UniProt O14786 22-856).
T2 construct: The R&D Systems NRP1 Phe22-Lys644 (Cat# 3870-N1) was only a control in Western blots
T2 sequence (looked up): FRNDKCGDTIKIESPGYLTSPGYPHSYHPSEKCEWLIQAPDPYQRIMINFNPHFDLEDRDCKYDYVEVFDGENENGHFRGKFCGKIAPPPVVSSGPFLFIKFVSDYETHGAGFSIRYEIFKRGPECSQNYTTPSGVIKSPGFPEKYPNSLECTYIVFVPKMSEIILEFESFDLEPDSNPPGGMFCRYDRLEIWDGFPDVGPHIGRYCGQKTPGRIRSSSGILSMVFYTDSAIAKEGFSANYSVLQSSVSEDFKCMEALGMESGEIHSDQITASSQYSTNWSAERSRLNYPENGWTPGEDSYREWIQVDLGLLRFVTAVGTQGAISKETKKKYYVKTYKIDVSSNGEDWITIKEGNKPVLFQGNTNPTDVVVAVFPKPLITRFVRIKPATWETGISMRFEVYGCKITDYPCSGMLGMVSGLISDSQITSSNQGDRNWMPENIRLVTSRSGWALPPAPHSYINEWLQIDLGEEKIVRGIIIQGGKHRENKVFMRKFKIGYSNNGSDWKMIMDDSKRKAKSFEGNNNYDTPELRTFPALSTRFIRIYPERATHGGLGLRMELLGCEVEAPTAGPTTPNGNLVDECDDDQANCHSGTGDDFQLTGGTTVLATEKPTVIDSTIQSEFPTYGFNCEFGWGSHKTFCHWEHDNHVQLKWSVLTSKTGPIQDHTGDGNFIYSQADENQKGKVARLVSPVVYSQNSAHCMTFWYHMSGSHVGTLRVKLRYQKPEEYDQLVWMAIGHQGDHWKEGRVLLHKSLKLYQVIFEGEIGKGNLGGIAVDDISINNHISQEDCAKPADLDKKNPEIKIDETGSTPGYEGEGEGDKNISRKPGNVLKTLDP
As to the kind of experiment: BLI; affinity of NRP1 for VEGF given beside the peptides of Table 1; set-up for VEGF not told separately. The following applies: both partners purified.

As for `CSCC[C@H](NC(=O)CCCC[C@@H]1SC[C@@H]2NC(=O)N[C@@H]21)C(=O)N[C@H]1CSSC[C@@H](C(=O)N[C@@H](Cc2ccccc2)C(=O)N[C@H](C(=O)N[C@H](C(=O)N[C@@H](CC(=O)O)C(=O)N[C@@H](Cc2c[nH]cn2)C(=O)N[C@@H](CCC(N)=O)C(=O)N[C@@H](CCSC)C(=O)N[C@@H](C)C(=O)N[C@@H](CCCNC(=N)N)C(=O)O)[C@@H](C)O)[C@@H](C)O)NC(=O)[C@@H]2CCCN2C(=O)[C@H](CCSC)NC1=O` [C00003], the affinity in data set [1], expressed as Kd, was 167 nM. In the case of `CC(C)C[C@H](NC(=O)[C@H](CSCC(N)=O)NC(=O)[C@H](CCC(N)=O)NC(=O)[C@@H]1CCCN1C(=O)CNC(=O)[C@H](Cc1ccc(O)cc1)NC(=O)CCCC[C@@H]1SC[C@@H]2NC(=O)N[C@@H]21)C(=O)N[C@@H](CSCC(N)=O)C(=O)N[C@@H](CCCNC(=N)N)C(=O)O` [C00008] (Biotin-YGPQC(Cam)LC(Cam)R-OH), in data set [1], the Kd is 297 nM. The molecule `CC(C)C[C@H](NC(=O)[C@H](CSCC(N)=O)NC(=O)CCCC[C@@H]1SC[C@@H]2NC(=O)N[C@@H]21)C(=O)N[C@@H](CSCC(N)=O)C(=O)N[C@@H](CCCNC(=N)N)C(=O)O` [C00011] (Biotin-C(Cam)LC(Cam)R-OH) gave a Kd in data set [1] of 335 nM. For Chlorotoxin [Cltx-CONH2], the “Competition with biotinylated VEGF for binding to NRP1” value in data set [2] was “not”. The “Median time to paralysis (total incapacitation)” value in data set [3] was determined as 25 s.

B1: Biotinylated VEGF165 (ligand)
chain: APMAEGGGQNHHEVVKFMDVYQRSYCHPIETLVDIFQEYPDEIEYIFKPSCVPLMRCGGCCNDEGLECVPTEESNITMQIMRIKPHQGQHIGEMSFLQHNKCECRPKKDRARQENPCGPCSERRKHLFVQDPQTCKCSCKNTDSRCKARQLELNERTCRCDKPRR
modifications: biotin
Consider B1, for which the Kd in data set [4] is around 50 nM.
